Measurements as given in ChEMBL document CHEMBL3507680, “University of Dundee, Gates Library screen for HepG2 cell viability”.

assay: Human HepG2 cell viability assay in 384 well format; assay type: toxicity, cell-based; set-up: dose 125 nL, time 70.5 hour; concentration not given beside the values; settings: HepG2 cells, read-out: Inhibition

Structure (SMILES)	cytotoxicity at 70.5 h
Cc1n[nH]c(C)c1CC(=O)NCc1ccccc1Cl	1.58%
COCCCNS(=O)(=O)c1ccc(N2CCCCS2(=O)=O)cc1	-9.62%
COc1ccc(C2=NOC(C(=O)N3CCCc4ccccc43)C2)cc1 (centres undefined)	8.49%
Cc1ccc(NC(=O)Nc2c[nH]c(=O)[nH]c2=O)c(Cl)c1	-8.13%
CCOCCCNC(=O)C(NC(=O)Cc1cccs1)c1ccc(C)cc1 (centres undefined)	-2.89%
CCOC(=O)CCn1cnc2onc(-c3cc(OC)ccc3Cl)c2c1=O	-11%
Cn1nnc(NCc2ccc(OCc3ccc(Cl)cc3)cc2)n1	-4.01%
CCOc1cc(CNc2nnn(C)n2)ccc1OCc1ccc(Cl)cc1	-10.2%
CCCn1nnc(NCc2ccccc2OCc2ccc(Cl)cc2)n1	-7.74%
CCOC(=O)CCn1cnc2onc(-c3ccc(OC)cc3)c2c1=O	35.2%
CN1CC=C(c2noc(CCC(=O)N3CCc4ccccc43)n2)CC1	-26.2%
CCOC(=O)CNC(=O)NCc1cc(C)n(-c2ccc(OC)cc2)c1C	-22.5%
COc1ccc(Cl)cc1Nc1nc(N)c(C(C)=O)s1	-19.7%
COc1ccc(Nc2nc(N)c(C(C)=O)s2)cc1OC	-12.7%
CCCC(=O)n1ccn(S(=O)(=O)c2ccc(C)cc2)c1=O	-14.8%
Cc1ccc(S(=O)(=O)n2ccn(C(=O)COc3ccccc3)c2=O)cc1	-9.68%
CCOC(=O)CNC(=O)NCc1cccn1Cc1ccccc1F	-2.5%
CCN1CCN(C(=O)CCn2cccc2)CC1	-12.8%
COCCCNC(=O)Nc1ncc(-c2cccc(OC)c2)n1CCOC	-17.4%
COCCn1c(-c2cccc(OC)c2)cnc1NC(=O)NCC(C)C	-18.3%
Cc1ccc2snc(C(=O)N3CCN(C(=O)NCCC(C)C)CC3)c2c1	-6.08%
COCCNC(=O)N1CCN(C(=O)c2nsc3ccc(C)cc23)CC1	-17.5%
CN1CCN(S(=O)(=O)c2cccc(F)c2)c2ccccc21	11.9%

Structure (SMILES)	cytotoxicity at 70.5 h
COC(=O)c1cccc(C(=O)NCc2ccc(C)o2)n1	-18.5%
CCN(CC)c1nc2ccsc2c(=O)n1CCC(=O)NCc1ccco1	12.3%
COc1ccccc1NC(=O)N1CCCC1c1ccco1 (centres undefined)	-0.874%
Cc1cc(=O)n2nc(CNc3cc(Cl)ccc3C)nc2[nH]1	-9.92%
CCC(=O)NC(c1cccnc1)c1cc(C)ccc1C (centres undefined)	-12.3%
Cc1ccccc1NC(=O)Nc1c[nH]c(=O)[nH]c1=O	-9.84%
CC1CCN(c2ccc(NC(=O)CCn3cccn3)cc2)CC1	-9.93%
COc1ccc(NC(=O)c2cnc(N3CCN(C)CC3)nc2C)cc1	-6.31%
CCC1CN(CC(=O)NCCN2CCCCCC2)c2ccccc2S1 (centres undefined)	-1.59%
CCC1CN(CC(=O)NCCN2CCCC2)c2ccccc2S1 (centres undefined)	-2.98%
COc1cccc(CN2CCCCCC2c2cccc(F)c2)c1O (centres undefined)	-1.29%
Cc1nn(C)c2c(=O)n(CC(=O)NCCN3CCCCCC3)ccc12	-4.19%
O=C(Cn1ccc2sccc2c1=O)NC1CCCCC1	-9.58%
CCCNC(=O)CCC(=O)n1nc(C)c2ccccc21	1.02%
CCCNC(=O)C1CCCN(c2ccc3nncn3n2)C1 (centres undefined)	-4.72%
CCN(CC)CCNC(=O)c1ccc(-n2ccc3ccccc32)s1	1.6%
O=C(NCCCN1CCCC1=O)c1ccc(-n2ccc3ccccc32)s1	1.6%
CCOc1nc2cnccc2n(CC(=O)NCCc2ccccc2)c1=O	28.7%
COc1ccc(NC(=O)c2nc3ccccc3n(C)c2=O)cc1OC	29.1%
COc1cc(NC(=O)c2nc3ccccc3n(C)c2=O)cc(OC)c1	-14.2%
COc1ccc(C2CCCCCN2Cc2cn(C)nc2C)cc1 (centres undefined)	-3.41%
Cc1nn(C)cc1CN1CCCCCC1c1ccccc1Cl (centres undefined)	17.7%
O=C(C1CCN(S(=O)(=O)N2CCCC2)CC1)N1CCC2(CC1)OCCO2	-7.18%

Structure (SMILES)	cytotoxicity at 70.5 h
CCOC(=O)C(C)NC(=O)N1CCN(c2nc3ccccc3n2C)CC1 (centres undefined)	-2.33%
CCS(=O)(=O)N1CCc2ccc(NC(=O)NC(C)(C)C)cc21	-13.6%
CCS(=O)(=O)N1CCc2ccc(NC(=O)Nc3cccc(F)c3)cc21	33%
CCn1nc(C)c2ccn(CC(=O)NC(C)C)c(=O)c21	-2.74%
COCCN1CC2(CCN(Cc3ccco3)CC2)c2ccccc21	4.26%
COCC(=O)NCC1Cn2nnc(-c3ccoc3)c2CO1 (centres undefined)	-6.95%
COc1ccc(C(=O)N2CCO[C@H]3[C@@H](OCC4CC4)CC[C@@H]32)cc1F	-2.05%
CS(=O)(=O)N1C[C@@H](C(=O)Nc2cnccn2)C[C@H]2OCC[C@H]21	-7.68%
CCN(CC)C(=O)c1nc2c(s1)CCN(C(=O)CCC(=O)OC)CC2	3.92%
COC(=O)CCC(=O)N1CCc2nc(C(=O)N3CCCCC3)sc2CC1	-1.33%
CCCS(=O)(=O)N1CCc2nc(N3CCOCC3)nc(N(C)C)c2C1	26.5%
O=C(CC1CC1)N1CCCn2c(nnc2Cn2cccc2)C1	-4.38%
COc1cc(N2C[C@H]3CN(CCN4CCCC4)C(=O)[C@H]3C2)ncn1	-7.36%
O=C(Nc1cnccn1)[C@H]1C[C@H]2OCC[C@H]2N(c2ncc(F)cn2)C1	-11.1%
CCn1cc2c(n1)C(COCC1CC1)CN(C(=O)c1cc(C)on1)C2 (centres undefined)	-10.4%
O=C([C@H]1COC[C@H]2CN(CC3CCC3)C[C@H]21)N1CCOCC1	-6.01%
O=C([C@@H]1COC[C@H]2CN(CC3CCCC3)C[C@H]21)N1CCOCC1	-7.37%
COc1ccc(C(=O)N2CCO[C@H]3[C@H](OCC4CC4)CC[C@@H]32)cc1F	-12.7%
O=C(Cc1cccs1)NCC1Cn2nnc(-c3ccoc3)c2CO1 (centres undefined)	-5.7%
CCS(=O)(=O)N1CCc2nc(N3CCOCC3)nc(N(C)C)c2CC1	-7.6%
CCOCC1CC2(CCN(C(=O)CC3=CCCCC3)CC2)CO1 (centres undefined)	1.88%
CC(=O)NCC(=O)N1Cc2cc(C#N)ccc2C1c1cnco1 (centres undefined)	25.2%
COCCc1noc(CN2CCCCC2Cn2cccn2)n1 (centres undefined)	-11.6%

Structure (SMILES)	cytotoxicity at 70.5 h
CCN1N=C(C(=O)N2CCCC(c3nc(C)cs3)C2)CCC1=O (centres undefined)	-2.03%
CC(NC(=O)NCCNc1ccccn1)c1cccs1 (centres undefined)	-1.83%
CC(C)C(NC(=O)Nc1ccccn1)c1cccs1 (centres undefined)	28.6%
O=C1CN(c2ccc(CNC(=O)NCCO)cc2)CCN1	-5.73%
CC1CCN(CCNC(=O)c2ccn(-c3ccccc3)n2)CC1	-6.14%
COc1ccc(-n2ccc(C(=O)NCCN3CCC(C)CC3)n2)cc1	-5.24%
COc1ccc(-n2ccc(C(=O)NCCN3CCCCC3)n2)cc1	-4.18%
Cn1ccc(CN2CCC(OCc3ccccc3)CC2)cc1=O	21.5%
CN(C)C(=O)c1cccc(CN2CCOC(Cn3cccn3)C2)c1 (centres undefined)	-12.9%
Cc1cnn(CC2CN(Cc3cccc(C(N)=O)c3)CCO2)c1 (centres undefined)	-9.19%
Cc1cnn(CC2CN(Cc3ccc(C(N)=O)cc3)CCO2)c1 (centres undefined)	-7.11%
Cc1cnn(CC2CN(Cc3cccc(OC(C)C)c3)CCO2)c1 (centres undefined)	-5.62%
Cc1cnn(CC2CN(Cc3cccnc3)CCO2)c1 (centres undefined)	-6.35%
Cc1cc(C[S+]([O-])CC(=O)NCc2ccccc2)no1 (centres undefined)	-5.28%
Cc1ccc(-c2nc(CNC3CCc4ncnn4C3)co2)cc1 (centres undefined)	-9.15%
O=C(Cc1cccc(O)c1)NCCCNC(=O)c1cccc(F)c1	-5.97%
CC(C)c1nc(CN2CCCC2Cn2cccn2)no1 (centres undefined)	-2.93%
CCc1csc(C2CCCN(C(=O)c3ccco3)C2)n1 (centres undefined)	17.1%
COC(=O)c1cccc(S(=O)(=O)NC(=O)COC2CCCC2)c1	-11.9%
Cc1cc2n(n1)CC(CNCc1ccc(OCC3CC3)nc1)CN2 (centres undefined)	7.09%
CCN(C(C)=O)c1nc(CN2CCCC2Cn2cncn2)cs1 (centres undefined)	17.8%
Cc1cnn(C2CN(Cc3nc(-c4ccccn4)no3)C2)c1	12.3%
CN(Cc1noc(C(C)(C)C)n1)C1CCCN(c2cccnn2)C1 (centres undefined)	44.8%

Structure (SMILES)	cytotoxicity at 70.5 h
CN(Cc1noc(C2CC2)n1)C1CCCN(c2cccnn2)C1 (centres undefined)	0.945%
CCC1CCCCN1Cc1ncc(C(C)(C)C)o1 (centres undefined)	-7.2%
O=C(c1ccc2nncn2c1)N1CCCC(n2ccnc2)C1 (centres undefined)	-14.2%
CCn1cnnc1CNC(=O)N1CCN(c2cccc(C)c2)CC1	-7.02%
Cc1cc(C)n(CC2CN(CC(=O)NC3CCCCC3)CCO2)n1 (centres undefined)	-9.27%
Cc1cc(C)n(CC2CN(CCC(=O)NC3CCCCC3)CCO2)n1 (centres undefined)	-9.5%
Cc1cccc(-c2noc(CN3CC(n4cccn4)C3)n2)c1	-8.11%
COc1ccc(CNC(C)Cn2cccn2)c(OC)c1OC (centres undefined)	-7.21%
CCCN(CC(=O)N1CCNCC1)C(=O)c1cccc(Cl)c1	-15.8%
CC(C)OCCCN(CC(=O)N1CCNCC1)C(=O)c1ccc(F)cc1	19.8%
CC[C@H]1N(CC2CCOCC2)CCC[C@]12CCC(=O)N2	-3.56%
Cc1noc(C)c1CN1CCC2(CC1)CC(Oc1cccnc1)CO2 (centres undefined)	1.43%
Cc1nnc(N2C[C@@H]3CCCO[C@@H]3[C@H](N3CCCC3=O)C2)s1	-9.55%
O=C(C1CCCO1)N1CCCn2c(nnc2Cn2ccnc2)C1 (centres undefined)	-7.67%
Cc1ccc(CN2CCC3(CCC3NS(=O)(=O)c3ccccc3)CC2)o1 (centres undefined)	8.23%
N#Cc1ccc(N2CCC3(CC2)COCCN3Cc2cccnc2)cc1	-4.74%
O=C(NC1CCCC1)N1CC[C@H]2[C@H]1CCN2c1nncs1	36.5%
COc1ccccc1OCC(=O)N1C[C@@H]2CN(C)CCO[C@@H]2C1	32.3%
COc1ncccc1CN1CCC2(CCCN2S(C)(=O)=O)CC1	-7.14%
COc1ncccc1CN1CCC2(CC1)COCCN2C	-8.7%
Cc1noc(C)c1CN1CCC2(CC1)CC(Oc1cccnc1)C2	-9.29%
N#Cc1ccc(N2CC3(CCN(c4nccs4)C3)C2)nc1	5.37%
